Experiment: Henry solubility constant Hcp at 295 K (mol/(m3 Pa))
Conditions: reference: Hellmann (1987)

Compound | Henry solubility constant Hcp at 295 K
Clc1cc(Cl)cc(Cl)c1 [1,3,5-trichlorobenzene] | 0.035
O=[N+]([O-])c1ccc(Cl)cc1 [4-chloronitrobenzene] | 0.18
CC(=O)CC(C)C [4-methyl-2-pentanone] | 0.065
c1ccccc1 [benzene] | 0.002
Clc1ccccc1 [chlorobenzene] | 0.0029
ClCCl [dichloromethane] | 0.0057
O=[N+]([O-])c1ccccc1 [nitrobenzene] | 0.14
CCCCCOC(C)=O [pentyl ethanoate] | 0.034
CC(C)=O [propanone] | 0.14
ClC(Cl)=C(Cl)Cl [tetrachloroethene] | 0.00077
ClC(Cl)(Cl)Cl [tetrachloromethane] | 0.00033
ClC=C(Cl)Cl [trichloroethene] | 0.00098
